Experimental data published in US6403554B2, “Polyunsaturated fatty acid derivatives and their use” (Ardenia Investments Ltd., priority 1998, dated 2002).
Values joined by “and” are separate entries in the source; they are usually repeats but may differ in a detail not shown here. Equal entries are not always repeated. “Also recorded” adds a separate entry of the source.

Assays:
[1] = system: antibody-forming cells (AFC) in the spleen; experiment: Influence of AFP/compound complexes and their components on humoral immune response (AFC in spleen); type: in vivo, C57B1/6 mice; details: for Dose at which immunostimulating effect in vivo is displayed: compound in a complex with AFP
Description: 0.15 ml of AFP/Compound 3 complex was administered intravenously to 6 mice males of C57B1/6 line (weight 18-22 g) in the dose of […] of AFP and 45.5 μg of compound 3 per capita. Simultaneously suspension of 5·10^7 sheep erythrocytes was injected intraperitoneally (0.2 ml per capita). In the group with compound 3 mice were injected intravenously by one in the dose of 45.5 μg. Animals of group with AFP received 9 μg of AFP. Mice of control group were injected intravenously with equal volume of saline. Complex AFP/Compound 3 effect on humoral immune response was analyzed by counting the quantity of AFC in the spleen according to Cunningham (per 10^6 spleen cells and per spleen).
0.15 ml of AFP/Compound 2a complex (1:100) was administered intravenously to 6 mice males of C57B1/6 line (weight 18-22 g) in the dose of 9 μg of AFP and 45.5 μg of compound 2a per capita. Simultaneously, a suspension of 5·10^7 sheep erythrocytes was injected intraperitoneally (0.2 ml per capita). In the group with compound 2a mice were injected intravenously by one in the dose of 45.5 μg. Animals of group with AFP received 9 μg of AFP. Mice in the control group were injected intravenously with an equal volume of saline. The effect of the AFP/Compound 2a complex on humoral immune response was analyzed by counting the quantity of AFC in the spleen according to Cunningham (per 10^6 spleen cells and per spleen).
(§1) 0.15 ml of AFP/Compound 10 complex (1:200) was administered intravenously to 6 male mice of C57B1/6 line (weight 18-22 g) in the dose of 9 μg of AFP and 91 μg of compound 10 per capita. Simultaneously, a suspension of 5·10^7 sheep erythrocytes was injected intraperitoneally (0.2 ml per capita). In the group receiving compound 10 mice were injected intravenously by one in the dose of 91 μg. Animals in the group with AFP received 9 μg of AFP. Micein the control group were injected intravenously with an equal volume of saline. The effect of the AFP/Compound 10 complex on humoral immune response was analyzed by counting the quantity of AFC in the spleen according to Cunningham (per 10^6 spleen cells and per spleen).
as §1, with “AFP/Compound 14” for “AFP/Compound 10”, “compound 14” for “compound 10”, “group with” for “group receiving”, “Animals of” for “Animals in the”, “AFP. Mice in” for “AFP. Micein”
0.15 ml of AFP/Compound 7 complex (1:200) was administered intravenously to 6 male mice of C57B1/6 line (weight 18-22 g) in the dose of 9 μg of AFP and 91 μg of compound 7 per capita. Simultaneously, a suspension of 5·10^7 sheep erythrocytes was injected intraperitoneally (0.2 ml per capita). In the group with compound 7 mice were injected intravenously by one in the dose of 91 μg. Animals of group with AFP received 9 μg of AFP. Mice of control group were injected intravenously with equal volume of saline. AFP/Compound 7 complex effect on humoral immune response was analyzed by counting the quantity of AFC in the spleen according to Cunningham (per 10^6 spleen cells and per spleen).
0.15 ml of AFP/Compound 15 complex (1:200) was administered intravenously to 6 mice males of C57B1/6 line (weight 18-22 g) in the dose of 9 μg of AFP and 91 μg of compound 15 per capita. Simultaneously, a suspension of 5·10^7 sheep erythrocytes was injected intraperitoneally (0.2 ml per capita). In the group receiving compound 15, the mice were injected intravenously by one in the dose of 91 μg. Animals in the AFP-group received 9 μg of AFP. […]

[2] = system: hemagglutinating antibodies in serum; experiment: Humoral immune response: titers of hemagglutinating antibodies in serum; type: in vivo, C57B1/6 mice; details: serum, female mice
Description: 0.15 ml of compound 10 was administered intravenously to 6 mice females of CS7B1/6 line (weight 18-22 g) in doses of 45.5, 91 and 136.5 μg of compound 10 per capita for each testing group according to the dose. Simultaneously, a suspension of 5·10^7 sheep erythrocytes was injected intraperitoneally (0.2 ml per capita). Mice in the control group were injected intravenously with equal volume of saline. The effects of compound 10 on humoral immune response were analyzed both by counting the quantity of AFC in the spleen according to Cunningham (per 10^6 spleen cells and per spleen) and estimating the titers of hemagglutining antibodies in serum of the animals (Cunningham A. J., Nature, 1965, Vol.207, No 5001. P.1106-1107), while the titers of hemagglutinating antibodies were evaluated according to litterature (Evans J. et al., Cell, 1974; Vol 3., p.153-158, Feizi T., Menger E., Transfusion, 1970, Vol. 10, p.33-35,).
(§2) 0.15 ml of compound 11 was administered intravenously to 6 female mice of the C57B1/6 line (weight 18-22 g) in doses of 45.5, 91 and 136.5 μg of compound 11 per capita for each testing group according to the dose. Simultaneously, a suspension of 5·10^7 sheep erytrocytes was injected intraperitoneally (0.2 ml per capita). Mice in the control group were injected intravenously with an equal volume of saline. The effects of compound 11 on humoral immune response was analysed both by counting the quantity of AFC in the spleen according to Cunningham (per 10^6 spleen cells and per spleen) and estimating the titers of hemagglutining antibodies in serum of the animals.
as §2, with “12” for “11”, “erythrocytes” for “erytrocytes”, “analyzed” for “analysed”
as §2, with “compound 8” for “compound 11”, “sheep erythrocytes” for “sheep erytrocytes”, “Mice of” for “Mice in”, “response were analyzed” for “response was analysed”
as §2, with “compound 3” for “compound 11”, “Mice of” for “Mice in”, “with” for “with an”, “response were” for “response was”
0.15 ml of compound 4 was administered intravenously to 6 female mice of the C57B1/6 line (weight 18-22 g) in a doses of 45.5, 91 and 136.5 μg of compound 4 per capita for each testing group according to the dose. Simultaneously, a suspension of 5·10^7 sheep erythrocytes was injected intraperitoneally (0.2 ml per capita). […]

[3] = AFP alone 9 μg/mouse i.v., 5-th day, male mice

CC1=C(/C=C/C(C)=C/C=C/C(C)=C/C(=O)NCCOP(=O)(O)O)C(C)(C)CCC1 [Compound 1, N-(all-trans-retinoyl)-o-phospho-2-aminoethanol]
Immunogenic activity ([1]; compound alone, 45.5 μg/mouse): no immunogenic activity; also recorded: do not inhibit immunogenic activity | Dose at which immunostimulating effect in vivo is displayed [1]: 45.5 μg/mouse

CCCCC/C=C\C/C=C\C/C=C\C/C=C\CCCC(=O)N[C@H](C(=O)O)[C@@H](C)OP(=O)(O)O [Compound 7, N-arachidonoyl-o-phospho-L-threonine]
Immunogenic activity ([1]; compound alone, 91 μg/mouse): no immunogenic activity; also recorded: do not inhibit immunogenic activity | Dose at which immunostimulating effect in vivo is displayed [1]: 91 μg/mouse

CC/C=C\C/C=C\C/C=C\C/C=C\C/C=C\C/C=C\CCC(=O)N[C@@H](COP(=O)(O)O)C(=O)O [Compound 10, N-docosahexaenoyl-o-phospho-L-serine]
Amount of hemagglutinins ([2]; 45.5 μg/mouse i.v.): 7.8 ± 0.3 Log2 T | Amount of hemagglutinins ([2]; 91 μg/mouse i.v.): 7.8 ± 0.3 Log2 T | Amount of hemagglutinins ([2]; 136.5 μg/mouse i.v.): 8.5 ± 0.4 Log2 T | Immunogenic activity ([1]; compound alone, 91 μg/mouse): no immunogenic activity; also recorded: do not inhibit immunogenic activity | Dose at which immunostimulating effect in vivo is displayed [1]: 91 μg/mouse

CC/C=C\C/C=C\C/C=C\C/C=C\C/C=C\CCCC(=O)N[C@@H](COP(=O)(O)O)C(=O)O [Compound 14, N-eicosapentaenoyl-o-phospho-L-serine]
Amount of hemagglutinins ([2]; 45.5 μg/mouse i.v.): 6.5 ± 0.3 Log2 T | Amount of hemagglutinins ([2]; 91 μg/mouse i.v.): 7.0 ± 0.3 Log2 T | Amount of hemagglutinins ([2]; 136.5 μg/mouse i.v.): 7.2 ± 0.2 Log2 T | Immunogenic activity ([1]; compound alone, 91 μg/mouse): no immunogenic activity; also recorded: do not inhibit immunogenic activity | Dose at which immunostimulating effect in vivo is displayed [1]: 91 μg/mouse

CC/C=C\C/C=C\C/C=C\C/C=C\C/C=C\CCCC(=O)N[C@H](C(=O)O)[C@@H](C)OP(=O)(O)O [Compound 15, N-eicosapentaenoyl-o-phospho-L-threonine]
Immunogenic activity ([1]; compound alone, 91 μg/mouse): no immunogenic activity; also recorded: do not inhibit immunogenic activity | Dose at which immunostimulating effect in vivo is displayed [1]: 91 μg/mouse

B1: human AFP: Alpha-fetoprotein isolated from human cord blood by immunoaffinity chromatography; AFP of Examples 38-41 (protein, UniProt P02771 19-609, looked up)
Alpha-fetoprotein: RTLHRNEYGIASILDSYQCTAEISLADLATIFFAQFVQEATYKEVSKMVKDALTAIEKPTGDEQSSGCLENQLPAFLEELCHEKEILEKYGHSDCCSQSEEGRHNCFLAHKKPTPASIPLFQVPEPVTSCEAYEEDRETFMNKFIYEIARRHPFLYAPTILLWAARYDKIIPSCCKAENAVECFQTKAATVTKELRESSLLNQHACAVMKNFGTRTFQAITVTKLSQKFTKVNFTEIQKLVLDVAHVHEHCCRGDVLDCLQDGEKIMSYICSQQDTLSNKITECCKLTTLERGQCIIHAENDEKPEGLSPNLNRFLGDRDFNQFSSGEKNIFLASFVHEYSRRHPQLAVSVILRVAKGYQELLEKCFQTENPLECQDKGEEELQKYIQESQALAKRSCGLFQKLGEYYLQNAFLVAYTKKAPQLTSSELMAITRKMAATAATCCQLSEDKLLACGEGAADIIIGHLCIRHEMTPVNPGVGQCCTSSYANRRPCFSSLVVDETYVPPAFSDDKFIFHKDLCQAQGVALQTMKQEFLINLVKQKPQITEEQLEAVIADFSGLLEKCCQGQEQEVCFAEEGQKLISKTRAALGV
Immunogenic activity ([1]; AFP alone, 9 μg/mouse): no immunogenic activity; also recorded: do not inhibit immunogenic activity

B2: rat AFP: Alpha-fetoprotein isolated from neonatal rat serum; AFP of Examples 42-44 (protein, UniProt P02773 25-611, looked up)
Alpha-fetoprotein: RVLHTNEFGIESTLDSSQCPTEKNMFNVATIVVAQFVQDATKAEVNKMSSDALAAMKENTGDGCLENQLSVFLDEICHETELSNKYGFSGCCNQSGVERHQCLLARKKTAPDSVPPFHFPETAESCPAYEENRAMSINTFIYDVSKRNPFLYAPTILYLAAQYDKAVPACCKADNMEECFQTKRASMAKELREGSMLNEHVCAVIRKFGSRNLQAVLIIKLSQKFPKANITEIRKLALDVAHIHEQCCHGNAMECLQDGESVMTHMCSQQEILSSKTAECCKLPTIELGYCIIHAENGDKPEGLTLNPSEFLGDRNFAQFSSEEKLLFMASFLHEYSRNHPNLPVSVILKTAKSYQEILEKCSQSETPSKCQDNMEEELQKHIQESQALAKQSCNLYQKLGPYYLQNLFLIGYTRKAPQLTSAELIDLTGKMVSIASTCCQLSEEKRSACGEGLADIYIGHLCLRHEANPVNSGINHCCSSSYSNRRLCITSFLRDETYVPPPFSEDKFIFHKDLCQAQGRALQTMKQELLINLVKQKPEMTEEQHAAVTADFSGLLEKCCKDQDQEACFAKEGPKLISKTREALGV
Relative amount of AFC (per 10^6 spleen cells) [1, 3]: 521.4±49.1 and 507.2±27.5 and 346.1±26.8 | Total AFC amount (per spleen) [1, 3]: 59.7±5.1 ·10^3 and 64.6±6.8 ·10^3 and 34.1±3.3 ·10^3 | Immunogenic activity ([1]; AFP alone, 9 μg/mouse): no immunogenic activity; also recorded: do not inhibit immunogenic activity
